One assay addresses T1, CCKA (Cavia porcellus, UniProt Q63931).
T1 construct: The pancreatata were homogenised in 40 ml ice-cold HEPES buffer; from tissue; host or cells: pancreas membranes of male Dunkin Hartley guinea-pigs
T1 sequence (Q63931 1-430): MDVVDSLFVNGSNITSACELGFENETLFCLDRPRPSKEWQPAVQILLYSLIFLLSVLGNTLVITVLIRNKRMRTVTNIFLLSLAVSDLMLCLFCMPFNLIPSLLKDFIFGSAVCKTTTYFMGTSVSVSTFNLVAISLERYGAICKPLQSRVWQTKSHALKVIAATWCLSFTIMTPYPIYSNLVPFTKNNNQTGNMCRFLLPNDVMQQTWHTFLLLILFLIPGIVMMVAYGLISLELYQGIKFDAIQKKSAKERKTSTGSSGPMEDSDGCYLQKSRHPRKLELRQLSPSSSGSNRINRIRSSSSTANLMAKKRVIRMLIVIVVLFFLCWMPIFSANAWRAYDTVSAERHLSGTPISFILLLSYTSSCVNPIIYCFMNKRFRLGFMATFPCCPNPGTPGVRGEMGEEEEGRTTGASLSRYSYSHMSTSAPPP
The experiment in a line: CCKA binding assay (guinea-pig pancreas membranes). Conditions: [125I]-CCK8(S) 200 pM, 0.375 μM PD134,308 present, 150 minutes at 21±3° C., read-out: CCKA pKi (converted). The method, then:
The compounds of the examples were also tested in a CCKA binding assay as follows:
The pancreatata were removed from male guinea-pigs (200-300 g; Dunkin Hartley) and placed in ice-cold HEPES buffer (pH 7.2@21 ±3° C.). The pancreatata were homogenised in 40 ml ice-cold HEPES buffer using a polytron (Brinkman, PT10, setting 10) 4×1 second. The homogenate was centrifuged at 39,800 g for 15 min at 4° C. The supernatant was discarded and the pellet re-suspended using a Teflon-in-glass homogeniser in 20 volumes of fresh buffer and re-centrifuged as above. The final pellet was re-suspended using a Teflon-in-glass homogeniser to a tissue concentration of 1 mg.ml^-1 (original wet weight), and filtered through 500 μm pore-size Nytex mesh.
The membranes (400 μl; containing 0.375 μM PD134,308) are incubated for 150 minutes at 21±3° C. in a final volume of 0.5 ml with HEPES buffer containing [^125 I]-CCK8 (S) (50 μl; 200 pM) and competing compound. Total and non-specific binding of [^125 I]-CCK^8 (S) are defined using 50 μl of buffer and 50 μl of 100 nM L-364,718respectively. The assay is terminated by rapid filtration through pre-soaked Whatman GF/B filters using a Brandell Cell Harvester. The filters were washed (3×3 ml) with ice-cold 50 mM Tris HCl (pH 7.4 at 4° C. and bound radioactivity is determined by counting (1 min) in a gamma counter.

In another assay the target is T2, CCKB (Mus musculus, UniProt P56481).
T2 construct: The cortex was dissected, weighed and homogenised in 40 ml ice-cold buffer; from tissue; host or cells: cerebral cortex membranes of male CD1 mice (Charles River)
T2 sequence (P56481 1-453): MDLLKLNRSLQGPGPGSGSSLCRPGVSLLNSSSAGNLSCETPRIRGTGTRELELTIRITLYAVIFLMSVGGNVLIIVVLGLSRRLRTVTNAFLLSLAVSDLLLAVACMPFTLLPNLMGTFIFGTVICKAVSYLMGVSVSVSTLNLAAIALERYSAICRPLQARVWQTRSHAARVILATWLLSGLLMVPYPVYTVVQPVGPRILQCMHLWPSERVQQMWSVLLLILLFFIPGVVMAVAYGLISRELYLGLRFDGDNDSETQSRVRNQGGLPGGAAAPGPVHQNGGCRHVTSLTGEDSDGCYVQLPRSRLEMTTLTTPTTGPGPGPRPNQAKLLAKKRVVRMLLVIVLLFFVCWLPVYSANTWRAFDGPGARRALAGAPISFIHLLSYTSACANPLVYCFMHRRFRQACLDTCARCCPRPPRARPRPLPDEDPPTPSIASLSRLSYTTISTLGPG
The experiment in a line: radioligand binding assay at the CCKB (CCK8 [sic]) receptor in mouse cortical membranes. Particulars: [125I]-CCK8S 200 pM, 150 min at 21±3° C., read-out: CCKB pKi (converted). On the procedure: The compounds of the examples were tested for binding at the CCK8 receptor in mouse cortical membranes by means of a radioligand binding assay. The procedure was as follows: The whole brains from male mice (CD1 22-25 g; Charles River) were removed and placed in ice-cold buffer (pH7.2@21±3° C.) of the following composition (mM); 10 HEPES, 130 NaCl, 4.7 KCl, 5 MgCl2, 1 EDTA and containing 0.25 g.1^-1 bacitracin. The cortex was dissected, weighed and homogenised in 40 ml ice-cold buffer using a Teflon-in-glass homogeniser. The homogenate was centrifuged at 39,800 g for 20 min at 4° C., the supernatant discarded and the pellet resuspended by homogenisation in fresh buffer. The homogenate was recentrifuged (39,800 g; 20 min@4° C.) and the final pellet was resuspended in HEPES buffer to give a tissue concentration of 2 mg.ml^-1 (original wet weight). The membranes ([…]) were incubated for 150 min at 21±3° C. in a final volume of 0.5 ml with HEPES buffer containing [^25 I]-CCK8S (0.05 ml; 200 pM NEN 2200 Ci.mmol^-1) and competing compound. Total and non-specific binding of [^125 I]-CCK8S were defined using 0.05 ml of buffer and 0.05 ml of […] L-365,260, respectively. The assay was terminated by rapid filtration through pre-soaked Whatman GF/B 35 filters using a Brandell Cell harvester. The filters were washed (3×3 ml) with ice-cold 5 mM Tris-HCl (pH7.4@4° C.) and bound radioactivity determined by counting (1 min.) in a gamma-counter.

In another assay the target is T3, Gastrin (Rattus norvegicus, UniProt P30553).
T3 construct: The stomach was excised and flushed with ca. 1 ml unbuffered physiological saline solution; from tissue; host or cells: isolated whole stomach of immature rats (33-50 g, ca. 21 days old)
T3 sequence (P30553 1-452): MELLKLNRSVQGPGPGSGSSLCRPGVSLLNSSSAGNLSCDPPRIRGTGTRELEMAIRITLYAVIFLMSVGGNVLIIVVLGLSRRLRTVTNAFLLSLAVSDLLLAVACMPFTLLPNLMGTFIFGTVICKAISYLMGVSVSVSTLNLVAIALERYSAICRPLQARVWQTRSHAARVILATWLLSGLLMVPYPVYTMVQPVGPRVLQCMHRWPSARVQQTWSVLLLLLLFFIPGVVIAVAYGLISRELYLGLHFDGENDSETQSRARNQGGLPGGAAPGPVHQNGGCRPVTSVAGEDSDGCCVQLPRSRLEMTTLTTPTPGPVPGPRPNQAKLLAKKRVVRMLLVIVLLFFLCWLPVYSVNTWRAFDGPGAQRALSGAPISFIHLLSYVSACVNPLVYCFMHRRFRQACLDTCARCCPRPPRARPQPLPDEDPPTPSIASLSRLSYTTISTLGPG
The experiment in a line: gastrin antagonist activity in an immature rat stomach assay (pentagastrin-stimulated acid secretion, isolated stomach). Particulars: cumulative pentagastrin dose-response curves, 60 min after drug, read-out: Gastrin pKB (converted). The method, then:
The compounds of the examples were also tested for gastrin antagonist activity in an immature rat stomach assay. The procedure was follows:
The oesophagus of immature rats (33-50 g, ca. 21 days old) was ligated at the level of the cardiac sphincter and the duodenal sphincter was cannulated. The stomach was excised and flushed with ca. 1 ml unbuffered physiological saline solution. The fundus was punctured and cannulated. A further 4-5 ml of unbuffered solution was flushed through the stomach to ensure the preparation was not leaking. The stomach was lowered into a jacketed organ bath containing 40 ml of buffered solution containing 3×10^-8 M5methylfurmethide, maintained at 37° and gassed vigorously with 95% O2 /5% CO2. The stomach was continuously perfused at a rate of 1 ml min^-1 with unbuffered solution gassed with 100% O2 with the perfusate passing over an internally referenced pH-electrode fixed 12 cm above the stomach.
After 120 min of stabilisation the drugs were added directly to the serosal solution in the organ bath and after a further 60 min cumulative pentagastrin dose-response curves were started. Changes in acid secretion were monitored and the curves analysed according to Black et. al., Br. J. Pharmacol., 1985, 86, 581.

The values below come from patent US5939437A, “CCK and gastrin receptor ligands” (James Black Foundation Limited, priority 1994, dated 1999).

Consider `O=C(O)c1cc(NC(=O)[C@H](Cc2ccccc2)NC(=O)c2ccc([N+](=O)[O-])cc2C(=O)NCC23CC4CC(CC(C4)C2)C3)cc(C(=O)O)c1` [Example 14, 1-(1S-(3,5-dicarboxyphenylamino-carbonyl)-2-phenylethylaminocarbonyl)-2-(1-adamantanemethyl-aminocarbonyl)-4-nitrobenzene], for which the Ki on CCKA was 3.16 µM; on CCKB, 501 nM. Moreover, at Gastrin, the Kb is 100 nM.

Consider `O=C(O)c1cc(NC(=O)[C@H](Cc2ccccc2)NC(=O)c2cc([N+](=O)[O-])ccc2C(=O)NCC23CC4CC(CC(C4)C2)C3)cc(C(=O)O)c1` [Example 15, 1-(1S-(3,5-dicarboxyphenylamino-carbonyl)-2-phenylethylaminocarbonyl)-2-(l-adamantanemethyl-aminocarbonyl)-5-nitrobenzene], for which the Ki on CCKA was 1 µM; on CCKB, 1000 nM. At Gastrin, the Kb was 316 nM.

On to `Nc1ccc(C(=O)N[C@@H](Cc2ccccc2)C(=O)Nc2cc(C(=O)O)cc(C(=O)O)c2)c(C(=O)NCC23CC4CC(CC(C4)C2)C3)c1` [Example 16, 1-(1S-(3,5-dicarboxyphenylamino-carbonyl)-2-phenylethylaminocarbonyl)-2-(1-adamantanemethyl-25 aminocarbonyl)-4-aminobenzene], for which the Ki on CCKA is 3.98 µM; at CCKB, 200 nM. Also, at Gastrin, the Kb was 63.1 nM.

For `Nc1ccc(C(=O)NCC23CC4CC(CC(C4)C2)C3)c(C(=O)N[C@@H](Cc2ccccc2)C(=O)Nc2cc(C(=O)O)cc(C(=O)O)c2)c1` [Example 17, 1-(1S-(3,5-dicarboxyphenylamino-carbonyl)-2-phenylethylaminocarbonyl)-2-(1-adamantanemethyl-aminocarbonyl)-5-aminobenzene], the Ki on CCKA is 12.6 µM; on CCKB, 50.1 nM. In addition, the Kb on Gastrin is 20 nM.

For `COc1ccc(C(=O)NCC23CC4CC(CC(C4)C2)C3)c(C(=O)N[C@@H](Cc2ccccc2)C(=O)Nc2cc(C(=O)O)cc(C(=O)O)c2)c1` [Example 19, 1-(1S-(3,5-dicarboxyphenylamino-carbonyl)-2-phenylethylaminocarbonyl)-2-(1-adamantanemethyl-aminocarbonyl)-5-methoxybenzene], the Ki at CCKA is 2 µM; at CCKB, 158 nM. At Gastrin, the Kb is 12.6 nM.

Regarding `O=C(O)c1cc(NC(=O)[C@H](Cc2ccccc2)NC(=O)c2cccc3c2C(=O)N(CC24CC5CC(CC(C5)C2)C4)C3)cc(C(=O)O)c1` [Example 26, 7-(1S-(3,5-dicarboxyphenylamino-carbonyl)-2-phenylethylaminocarbonyl)-2-(1-adamantanemethyl)indol-1-one], the values for the Ki at CCKA and on CCKB were 3.16 µM and 100 nM, respectively. For the same molecule, the Kb at Gastrin is 63.1 nM.
